Measured values as given in patent US9493464B2, “Wee1 degradation inhibitors” (The Scripps Research Institute, priority 2012, dated 2016).
pEC50, pIC50: −log10 of the molar value. Several values for one entry are separate records, joined by “and”; a condition that tells them apart may be missing. Equal values may be shown once.

Tests used:
K328M-Wee1-luciferase = assay: Wee1-luciferase assay (stabilization of K328M-Wee1-luciferase); assay type: cell-based; conditions: for % Inhibition, Wee1 Degradation: at 250 nM, reported relative to SR-1277 = 100%; for pEC50: read-out: Wee1 Stabilization
Source text: Steady-state level of K328M-Wee1-Luciferase (K328M-Wee1-Luc) was divided by Luciferase level (Luc) and plotted.
(§1) Similar assays have previously been described; PubChem AID 1807.

CK1δ = CK1δ (Homo sapiens, UniProt P48730); assay: In vitro kinase assay, CK1d, 32P-ATP filter binding (Reaction Biology Corporation); assay type: biochemical; conditions: footnote a: determined by Reaction Biology Corporation; read-out: IC50 CK1d
Description: (§2) Compounds were tested in 10-dose IC50 mode with 3-fold serial dilution starting at 50 μM. […] Reactions were carried out at 10 μM ATP. Average and standard deviations of reactions carried out in triplicate are shown.
(§3) In vitro kinase assay to detect CK1 or FLT3 activity: CK1 and FLT3 assays as well as complete kinase profile of 296 kinases was performed by Reaction Biology Corporation. For FLT3 20 μM final Abltide was used, sequence: [[…]]. For CK1 (all isoforms) 20 μM CK1 tide was used, sequence: [KRRRAL[pS]VASLPGL] in a standard kinase assay with ^32P-ATP and purified kinase. Incorporation of ^32P-ATP into the peptide was measured after a filter-binding assay. In-house CK1d inhibition assays were performed using a standard homogenous time-resolved fluorescence resonance energy transfer (TR-FRET) format in 50 mM Hepes, pH 7.0, 2.5 mM MgCl2, 0.1 mg/ml bovine serum albumin, 1 mM DL-dithiothreitol, 0.01% Triton X-100 (all from Sigma-Aldrich). Briefly, the CK1δ substrate (DEKTDDE, containing CK1 consensus sequence; 4 μL of a 500 nM stock solution) is labeled with a small Ulight acceptor dye (PerkinElmer). In the presence of 10 μL of 10 nM CK1δ, the Ulight peptide is phosphorylated at a single amino acid that is specifically recognized by a europium chelate (Eu)-labeled phosphospecific antibody. Assays were performed in the presence of 2 μL of compound at different (measured) concentrations, and reactions were stopped by adding 10 μL of 4 nM Eu-anti-p-Topo-IIa (PerkinElmer) in Lance Detection Buffer (Perkin Elmer). Upon excitation of the Eu-labeled antibody, energy is transferred to the acceptor dye resulting in the emission of detected light at 665 nm.

FLT3 = target: T1, FLT3 (Homo sapiens, UniProt P36888); assay: In vitro kinase assay, FLT3 (Reaction Biology Corporation); assay type: biochemical; conditions: determined by Reaction Biology Corporation; read-out: IC50 FLT3
T1 construct: Reaction Biology Corporation (contract assay)
T1 sequence (P36888 27-993): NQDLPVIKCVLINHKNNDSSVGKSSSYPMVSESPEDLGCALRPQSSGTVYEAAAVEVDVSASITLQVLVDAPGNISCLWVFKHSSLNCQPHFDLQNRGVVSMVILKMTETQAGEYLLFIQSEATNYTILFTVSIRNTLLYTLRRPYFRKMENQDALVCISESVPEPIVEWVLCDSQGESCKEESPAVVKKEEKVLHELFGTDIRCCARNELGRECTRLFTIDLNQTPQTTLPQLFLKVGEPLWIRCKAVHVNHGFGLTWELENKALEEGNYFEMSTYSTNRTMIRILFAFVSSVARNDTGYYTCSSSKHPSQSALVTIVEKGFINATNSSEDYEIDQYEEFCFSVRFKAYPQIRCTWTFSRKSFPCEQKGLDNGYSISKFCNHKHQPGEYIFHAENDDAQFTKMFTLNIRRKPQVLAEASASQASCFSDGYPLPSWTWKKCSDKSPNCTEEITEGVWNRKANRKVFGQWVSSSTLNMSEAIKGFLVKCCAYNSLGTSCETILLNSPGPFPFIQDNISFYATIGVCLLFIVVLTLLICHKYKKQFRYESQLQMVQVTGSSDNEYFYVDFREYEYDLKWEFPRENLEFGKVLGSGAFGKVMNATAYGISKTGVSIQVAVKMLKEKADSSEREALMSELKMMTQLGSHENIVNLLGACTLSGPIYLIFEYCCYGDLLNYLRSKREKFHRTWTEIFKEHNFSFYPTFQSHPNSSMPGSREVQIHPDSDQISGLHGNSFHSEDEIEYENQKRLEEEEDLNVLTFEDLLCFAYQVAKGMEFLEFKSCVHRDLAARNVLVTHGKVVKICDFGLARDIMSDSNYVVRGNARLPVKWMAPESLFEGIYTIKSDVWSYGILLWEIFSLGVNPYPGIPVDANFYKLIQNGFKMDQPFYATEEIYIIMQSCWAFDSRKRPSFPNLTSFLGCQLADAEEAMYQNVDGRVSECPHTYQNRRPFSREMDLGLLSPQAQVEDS
Description: as §2, §3

RXF393 (renal) = assay: NCI Dose Growth Inhibition assay (NCI-60); assay type: cell-based; conditions: Homo sapiens, RXF 393; RXF393 (renal); read-out: GI50
Description: (§4) Table 3, below, illustrates the activity of some of the compounds of the present invention in the National Cancer Institute's Dose Growth Inhibition assay against several human tumor cell lines selected from the NCI-60 panel.
(§5) NCI-60 Cancer Cell Line Screening was performed by the National Cancer Institute, using the procedures described on their website (http://dtp.nci.nih.gov/branches/btb/ivelsp.html)

UACC-62 (melanoma) = assay: NCI Dose Growth Inhibition assay (NCI-60); assay type: cell-based; conditions: Homo sapiens; UACC-62 (melanoma); read-out: GI50
Description: as §4, §5

MDA-MB-468 (breast) = assay: NCI Dose Growth Inhibition assay (NCI-60); assay type: cell-based; conditions: Homo sapiens; MDA-MB-468 (breast); read-out: GI50
Description: as §4, §5

COLO 205 (colon) = assay: NCI Dose Growth Inhibition assay (NCI-60); assay type: cell-based; conditions: Homo sapiens; COLO 205 (colon); read-out: GI50
Description: as §4, §5

A498 (renal) = assay: NCI Dose Growth Inhibition assay (NCI-60); assay type: cell-based; conditions: Homo sapiens; A498 (renal); read-out: GI50
Description: as §4, §5

SNB-75 (CNS) = assay: NCI Dose Growth Inhibition assay (NCI-60); assay type: cell-based; conditions: Homo sapiens; SNB-75 (CNS); read-out: GI50
Description: as §4, §5

[1] = tested on: cerebellar granule cell progenitors (GCPs); assay: In vitro proliferation of cerebellar granule cell progenitors (3H-thymidine uptake); assay type: cell-based, mouse; conditions: 24 hours; result in words
Description: GCPs were incubated with DMSO, 5 μM D4476 (known CK1δ and CK1ε inhibitor), or 50 μM D4476 and processed for ^3H-thymidine incorporation after 24 hours. A representative experiment performed in triplicate is shown.

Luciferase = Luciferase alone control (PGL3 vector); assay type: cell-based; conditions: HeLa cells; result in words
Description: The percentage of signal relative to the proteasome inhibitor MG132 is shown. […] A Western blot is shown of endogenous Wee1 or Skp1 (loading control) of HeLa cells incubated with 5 μM of indicated compounds for 24 hours. […] The 0 time point was set to 100%. […] The extent of degradation was measured as in FIG. D.
5 μM of indicated compounds were incubated with K328M-Wee1-Luciferase or Luciferase expressing HeLa cells and the extent of stabilization measured after adding Brite-lite. MG132 was used as a positive control.
as §1

CK1δ, sequence (P48730 whole entry): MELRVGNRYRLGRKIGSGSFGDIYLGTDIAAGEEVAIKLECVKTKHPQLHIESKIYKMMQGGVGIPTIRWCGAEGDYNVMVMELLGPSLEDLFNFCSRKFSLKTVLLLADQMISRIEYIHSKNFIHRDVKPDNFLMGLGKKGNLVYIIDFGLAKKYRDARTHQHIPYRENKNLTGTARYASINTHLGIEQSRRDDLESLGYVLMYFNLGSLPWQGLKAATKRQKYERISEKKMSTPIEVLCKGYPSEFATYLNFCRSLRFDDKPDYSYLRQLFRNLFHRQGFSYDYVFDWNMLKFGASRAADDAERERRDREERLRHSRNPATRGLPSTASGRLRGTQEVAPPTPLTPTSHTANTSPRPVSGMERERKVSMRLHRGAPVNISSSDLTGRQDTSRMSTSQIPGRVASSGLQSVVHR

SMILES | % Inhibition, Wee1 Degradation (K328M-Wee1-luciferase) [%] | pIC50 (CK1δ) | pIC50 (FLT3) | other results
COc1ccc2[nH]c(CNc3nc(N4CCOCC4)nc4c3ncn4-c3ccsc3)nc2c1 [SR-1279] | 79.5 | 7.77 | 7.85 | –
Clc1ccc2[nH]c(CNc3nc(N4CCNCC4)nc4c3ncn4-c3ccoc3)nc2c1 [SR-2889] | – | 8.30 | 7.09 | GI50 (RXF393 (renal)): < 10 nM; GI50 (UACC-62 (melanoma)): 17 nM; GI50 (MDA-MB-468 (breast)): < 10 nM; GI50 (COLO 205 (colon)): < 10 nM; GI50 (A498 (renal)): 24 nM; GI50 (SNB-75 (CNS)): < 10 nM
c1ccc2[nH]c(CNc3nc(N4CCOCC4)nc4c3ncn4C3CCCC3)nc2c1 [SR-2149] | 6.1 | 7.34 | 6.40 | –
FC(F)(F)c1cc(Br)c2nc(CNc3nc(N4CCOCC4)nc4c3ncn4-c3ccsc3)[nH]c2c1 [SR-1285] | 13.4 | 6.28 | 5.32 | –
COc1ccc2[nH]c(CNc3nc(N4CCNCC4)nc4c3ncn4-c3ccoc3)nc2c1 [SR-2891] | – | 7.96 | 6.11 | GI50 (RXF393 (renal)): 49 nM; GI50 (UACC-62 (melanoma)): 174 nM; GI50 (MDA-MB-468 (breast)): < 10 nM; GI50 (COLO 205 (colon)): 30 nM; GI50 (A498 (renal)): 321 nM; GI50 (SNB-75 (CNS)): 24 nM
Clc1ccc2[nH]c(CNc3nc(N4CCOCC4)nc4c3ncn4-c3ccoc3)nc2c1 [SR-2850] | – | 7.64 | 6.89 | –
O=[N+]([O-])c1ccc2[nH]c(CNc3nc(N4CCOCC4)nc4c3ncn4-c3ccsc3)nc2c1 [SR-1278] | 18.7 | 7.68 | 6.62 | –
FC(F)(F)c1ccc2[nH]c(CNc3nc(N4CCOCC4)nc4c3ncn4-c3ccsc3)nc2c1 [SR-1273] | 46.3 | 7.89 | 6.29 | –
c1ccc2cc3[nH]c(CNc4nc(N5CCOCC5)nc5c4ncn5-c4ccsc4)nc3cc2c1 [SR-1280] | 48.3 | 6.89 | 6.01 | –
N#Cc1ccc2[nH]c(CNc3nc(N4CCOCC4)nc4c3ncn4-c3ccsc3)nc2c1 [SR-1276] | 85.9 | 7.96 | 7.21 | –
Clc1ccc2[nH]c(CNc3nc(N4CCOCC4)nc4c3ncn4-c3ccsc3)nc2c1 [SR-1274] | 101.2 | 6.98 | 6.52 | pEC50 (K328M-Wee1-luciferase): 6.79
CS(=O)(=O)c1cccc2[nH]c(CNc3nc(N4CCOCC4)nc4c3ncn4-c3ccsc3)nc12 [SR-2805] | – | 7.80 | 7.24 | –
FC(F)(F)c1cccc2[nH]c(CNc3nc(N4CCOCC4)nc4c3ncn4-c3ccsc3)nc12 [SR-1272] | 10.8 | 6.89 | 6.58 | –
CN1CCN(c2nc(NCc3nc4cc(F)ccc4[nH]3)c3ncn(-c4ccoc4)c3n2)CC1 [SR-2866] | – | 7.70 | 6.67 | –
c1ccc2[nH]c(CNc3nc(N4CCNCC4)nc4c3ncn4-c3ccsc3)nc2c1 [SR-1292] | 14.5 | 8.52 | 7.80 | –
Fc1cccc(-n2cnc3c(NCc4nc5cc(Cl)ccc5[nH]4)nc(N4CCNCC4)nc32)c1 [SR-2890] | – | 8.40 | 6.09 | GI50 (RXF393 (renal)): 41 nM; GI50 (UACC-62 (melanoma)): 182 nM; GI50 (MDA-MB-468 (breast)): 12 nM; GI50 (COLO 205 (colon)): 29 nM; GI50 (A498 (renal)): 207 nM; GI50 (SNB-75 (CNS)): 46 nM
CN1CCN(c2nc(NCc3nc4ccccc4[nH]3)c3ncn(-c4ccsc4)c3n2)CC1 [SR-1294] | 14.1 | 7.96 | 7.17 | –
Fc1ccc2[nH]c(CNc3nc(N4CCOCC4)nc4c3ncn4-c3ccsc3)nc2c1 [SR-1275] | 81.4 | 7.30 | 7.10 | –
O=[N+]([O-])c1cccc2[nH]c(CNc3nc(N4CCOCC4)nc4c3ncn4-c3ccoc3)nc12 [SR-2007] | 81.1 | 7.74 and 7.72 | 6.46 | –
CC(C)n1cnc2c(NCc3nc4c([N+](=O)[O-])cccc4[nH]3)nc(N3CCOCC3)nc21 [SR-1284] | 111.2 | 6.09 | 4.55 | pEC50 (K328M-Wee1-luciferase): 6.70
CCOC(=O)c1cccc2[nH]c(CNc3nc(N4CCOCC4)nc4c3ncn4-c3ccsc3)nc12 [SR-1282] | 97.3 | 6.44 | 6.26 | pEC50 (K328M-Wee1-luciferase): 6.68
CS(=O)(=O)c1ccc2[nH]c(CNc3nc(N4CCOCC4)nc4c3ncn4-c3ccsc3)nc2c1 [SR-2797] | – | 8.00 | 7.16 | –
NC(=O)c1ccc(-c2nc(-c3ccc4c(c3)OCCO4)c(-c3ccccn3)[nH]2)cc1 [Compound D4476, reference compound] | – | – | – | stabilization of K328M-Wee1-luciferase (K328M-Wee1-luciferase; HeLa cells, result in words): stabilizes K328M-Wee1-luciferase; inhibition of GCP proliferation (3H-thymidine) [1]: inhibited GCP proliferation; Luciferase levels (Luciferase): does not affect Luciferase levels
Cn1c(CNc2nc(N3CCOCC3)nc3c2ncn3-c2ccsc2)nc2ccccc21 [SR-2001] | 1.7 | 7.66 | 6.90 | –
COc1ccc2[nH]c(CNc3nc(N4CCN(C)CC4)nc4c3ncn4-c3ccoc3)nc2c1 [SR-2848] | – | 7.54 | 6.53 | –
CN1CCN(c2nc(NCc3nc4cc(Cl)ccc4[nH]3)c3ncn(-c4ccoc4)c3n2)CC1 [SR-2849] | – | 7.96 | 6.74 | GI50 (RXF393 (renal)): 17 nM; GI50 (UACC-62 (melanoma)): 130 nM; GI50 (MDA-MB-468 (breast)): < 10 nM; GI50 (COLO 205 (colon)): 25 nM; GI50 (A498 (renal)): 113 nM; GI50 (SNB-75 (CNS)): 19 nM
